In patent publication US20240208992A1, “MACROCYCLES AS CFTR MODULATORS” (Idorsia Pharmaceuticals Ltd, priority 2021, published 2024) one finds EC50 and Emax data, which are given here for eleven compounds.

The test concerns the target human F508del-CFTR (Homo sapiens, UniProt P13569, DEL508-508). Briefly: F508del-CFTR cell surface expression (corrector activity), DiscoveRx ß-galactosidase complementation chemiluminescence assay in recombinant U2OS cell line.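 As to all read-outs here: U2OS cells co-expressing ProLink-tagged F508del-CFTR and a membrane-anchored enzyme acceptor, where more surface CFTR restores β-galactosidase activity measured by chemiluminescence.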 Conditions: for EC50: EC50, F508del-CFTR cell surface expression, U2OS cells, 16h compound incubation, geomean values; for Emax: U2OS, in relation to Emax of corrector lumacaftor (=100%), arithmetic mean values.

Sequence of human F508del-CFTR (P13569 with tags, fused parts or gaps DEL508-508): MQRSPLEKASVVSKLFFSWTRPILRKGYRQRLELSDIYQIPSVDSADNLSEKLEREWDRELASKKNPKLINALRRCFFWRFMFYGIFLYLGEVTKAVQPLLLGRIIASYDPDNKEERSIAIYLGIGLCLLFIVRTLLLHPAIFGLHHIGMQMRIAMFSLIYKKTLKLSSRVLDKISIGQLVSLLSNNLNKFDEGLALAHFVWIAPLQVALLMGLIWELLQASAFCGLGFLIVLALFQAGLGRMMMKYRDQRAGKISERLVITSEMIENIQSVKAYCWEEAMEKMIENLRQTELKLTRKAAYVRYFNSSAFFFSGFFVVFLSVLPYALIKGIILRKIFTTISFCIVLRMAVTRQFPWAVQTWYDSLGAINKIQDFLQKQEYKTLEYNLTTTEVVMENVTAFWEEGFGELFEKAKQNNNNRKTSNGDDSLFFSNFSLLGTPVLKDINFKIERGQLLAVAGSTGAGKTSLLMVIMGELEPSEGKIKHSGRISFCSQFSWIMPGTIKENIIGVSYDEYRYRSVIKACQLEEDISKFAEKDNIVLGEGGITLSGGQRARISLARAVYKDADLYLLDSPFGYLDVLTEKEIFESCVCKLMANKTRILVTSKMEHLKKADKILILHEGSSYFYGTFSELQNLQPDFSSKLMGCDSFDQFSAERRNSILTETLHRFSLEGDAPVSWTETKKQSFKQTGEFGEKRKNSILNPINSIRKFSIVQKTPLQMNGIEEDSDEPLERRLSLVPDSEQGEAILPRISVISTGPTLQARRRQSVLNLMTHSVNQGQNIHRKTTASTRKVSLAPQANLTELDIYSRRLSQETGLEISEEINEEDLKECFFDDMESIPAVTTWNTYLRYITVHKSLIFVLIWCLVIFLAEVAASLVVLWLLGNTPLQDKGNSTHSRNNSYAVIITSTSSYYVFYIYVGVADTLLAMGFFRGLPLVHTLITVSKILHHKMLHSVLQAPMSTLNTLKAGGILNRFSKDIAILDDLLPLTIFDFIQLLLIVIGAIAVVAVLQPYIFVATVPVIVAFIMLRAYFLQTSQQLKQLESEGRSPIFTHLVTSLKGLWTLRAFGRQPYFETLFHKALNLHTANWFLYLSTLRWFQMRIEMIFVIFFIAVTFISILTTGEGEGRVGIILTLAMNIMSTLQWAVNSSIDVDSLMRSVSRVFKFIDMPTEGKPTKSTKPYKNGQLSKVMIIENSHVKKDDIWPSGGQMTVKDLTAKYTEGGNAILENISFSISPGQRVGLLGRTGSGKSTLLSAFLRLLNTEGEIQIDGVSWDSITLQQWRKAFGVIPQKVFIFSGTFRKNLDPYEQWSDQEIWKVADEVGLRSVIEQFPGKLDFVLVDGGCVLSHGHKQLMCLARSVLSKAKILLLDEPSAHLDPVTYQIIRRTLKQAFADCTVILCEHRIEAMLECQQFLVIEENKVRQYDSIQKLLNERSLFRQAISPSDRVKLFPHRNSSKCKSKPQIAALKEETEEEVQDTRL

In the case of `Cc1cc(CCNC(=O)[C@@H]2CC(=O)N(C)[C@@H](CC(C)C)C(=O)N(C)C3(Cc4ccccc4C3)C(=O)N[C@H](Cc3ccccc3)COc3cnc4ccccc4c3C(=O)N2)on1` [Example 495, (3′S,7′S,13′R)-13′-benzyl-7′-isobutyl-6′,9′-dimethyl-N-(2-(3-methylisoxazol-5-yl)ethyl)-1′,5′,8′,11′-tetraoxo-1,2′,3,3′,4′,5′,6′,7′,8′,9′,11′,12′,13′,14′-tetradecahydro-1′H-spiro[indene-2,10′-[1]oxa[4,7,10,14]tetraazacycloheptadecino[17,16-c]quinoline]-3′-carboxamide], the EC50 amounted to 296 nM and the Emax came out at 207%.
On the same counts, the results for `CC(C)C[C@H]1C(=O)N(C)C2(CC2)C(=O)N[C@H](Cc2ccccc2)COc2cnc3ccccc3c2C(=O)N[C@H](C(=O)NCCc2ccc(-c3ncccn3)cc2)CC(=O)N1C` [Example 496, (3′S,7′S,13′R)-13′-benzyl-7′-isobutyl-6′,9′-dimethyl-1′,5′,8′,11′-tetraoxo-N-(4-(pyrimidin-2-yl)phenethyl)-2′,3′,4′,5′,6′,7′,8′,9′,11′,12′,13′,14′-dodecahydro-1′H-spiro[cyclopropane-1,10′-[1]oxa[4,7,10,14]tetraazacycloheptadecino[17,16-c]quinoline]-3′-carboxamide] are 523 nM and 317%.
In the case of `CC(C)C[C@H]1C(=O)N2CCCC[C@H]2C(=O)N[C@H](Cc2ccccc2)COc2cnc3c(F)cccc3c2C(=O)N[C@H](C(=O)NCCc2cc(C3CC3)on2)CC(=O)N1C` [Example 497, (9S,13S,19aS,22R)-22-benzyl-N-(2-(5-cyclopropylisoxazol-3-yl)ethyl)-3-fluoro-13-isobutyl-12-methyl-7,11,14,20-tetraoxo-7,8,9,10,11,12,13,14,17,18,19,19a,20,21,22,23-hexadecahydro-16H-pyrido[2′,1′:6,7][1]oxa[4,7,10,14]tetraazacycloheptadecino[17,16-c]quinoline-9-carboxamide], the EC50 was 535 nM and the Emax worked out at 171%.
The like results for `CC(C)C[C@H]1C(=O)N2CCCC[C@@H]2C(=O)N[C@H](Cc2ccccc2)COc2cnc3c(F)cccc3c2C(=O)N[C@H](C(=O)NCCc2noc(C3CC3)n2)CC(=O)N1C` [Example 498, (9S,13S,19aR,22R)-22-benzyl-N-(2-(5-cyclopropyl-1,2,4-oxadiazol-3-yl)ethyl)-3-fluoro-13-isobutyl-12-methyl-7,11,14,20-tetraoxo-7,8,9,10,11,12,13,14,17,18,19,19a,20,21,22,23-hexadecahydro-16H-pyrido[2′,11:6,7][1]oxa[4,7,10,14]tetraazacycloheptadecino[17,16-c]quinoline-9-carboxamide] were, in that order, 198 nM and 313%.
Regarding `CC(C)C[C@H]1C(=O)N2CCCC[C@@H]2C(=O)N[C@H](Cc2ccccc2)COc2cnc3c(F)cccc3c2C(=O)N[C@H](C(=O)NCCc2cc(C3CC3)no2)CC(=O)N1C` [Example 499, (9S,13S,19aR,22R)-22-benzyl-N-(2-(3-cyclopropylisoxazol-5-yl)ethyl)-3-fluoro-13-isobutyl-12-methyl-7,11,14,20-tetraoxo-7,8,9,10,11,12,13,14,17,18,19,19a,20,21,22,23-hexadecahydro-16H-pyrido[2′,11:6,7][1]oxa[4,7,10,14]tetraazacycloheptadecino[17,16-c]quinoline-9-carboxamide], the half-maximal effective concentration (EC50) amounted to 189 nM and the Emax is 321%.
On the same counts, the results for `CC(C)C[C@H]1C(=O)N2CCCC[C@H]2C(=O)N[C@H](Cc2ccccc2)COc2cnc3c(F)cccc3c2C(=O)N[C@H](C(=O)NCCc2cc(C3CC3)no2)CC(=O)N1C` [Example 500, (9S,13S,19aS,22R)-22-benzyl-N-(2-(3-cyclopropylisoxazol-5-yl)ethyl)-3-fluoro-13-isobutyl-12-methyl-7,11,14,20-tetraoxo-7,8,9,10,11,12,13,14,17,18,19,19a,20,21,22,23-hexadecahydro-16H-pyrido[2′,1′:6,7][1]oxa[4,7,10,14]tetraazacycloheptadecino[17,16-c]quinoline-9-carboxamide] are 553 nM and 199%.
Take `CC(C)C[C@H]1C(=O)N2CCCC[C@@H]2C(=O)N[C@H](Cc2ccccc2)COc2cnc3c(F)cccc3c2C(=O)N[C@H](C(=O)NCCc2nc(C3CC3)no2)CC(=O)N1C` [Example 501, (9S,13S,19aR,22R)-22-benzyl-N-(2-(3-cyclopropyl-1,2,4-oxadiazol-5-yl)ethyl)-3-fluoro-13-isobutyl-12-methyl-7,11,14,20-tetraoxo-7,8,9,10,11,12,13,14,17,18,19,19a,20,21,22,23-hexadecahydro-16H-pyrido[2′,11:6,7][1]oxa[4,7,10,14]tetraazacycloheptadecino[17,16-c]quinoline-9-carboxamide]: the EC50 was 198 nM and the Emax was found to be 308%.
On the same counts, the results for `CC(C)C[C@H]1C(=O)N(C)C2(CC2)C(=O)N[C@H](Cc2ccccc2)COc2cnc3ccccc3c2C(=O)N[C@H](C(=O)NCCc2cccc(-c3ncccn3)c2)CC(=O)N1C` [Example 502, (3′S,7′S,13′R)-13′-benzyl-7′-isobutyl-6′,9′-dimethyl-1′,5′,8′,11′-tetraoxo-N-(3-(pyrimidin-2-yl)phenethyl)-2′,3′,4′,5′,6′,7′,8′,9′,11′,12′,13′,14′-dodecahydro-1′H-spiro[cyclopropane-1,10′-[1]oxa[4,7,10,14]tetraazacycloheptadecino[17,16-c]quinoline]-3′-carboxamide] are 752 nM and 295%.
As for `COc1cccc(CCNC(=O)[C@@H]2CC(=O)N(C)[C@@H](CC(C)C)C(=O)N(C)C(C)(C)C(=O)N[C@H](Cc3ccccc3)COc3cnc4ccccc4c3C(=O)N2)c1` [Example 503, (3S,7S,13R)-13-benzyl-7-isobutyl-N-(3-methoxyphenethyl)-6,9,10,10-tetramethyl-1,5,8,11-tetraoxo-1,2,3,4,5,6,7,8,9,10,11,12,13,14-tetradecahydro-[1]oxa[4,7,10,14]tetraazacycloheptadecino[17,16-c]quinoline-3-carboxamide], the 50% effective concentration (EC50) amounted to 772 nM and the maximal response (Emax) stood at 137%.
The like results for `CC(C)C[C@H]1C(=O)N2CCCC[C@@H]2C(=O)N[C@H](Cc2ccccc2)COc2ccc3ncccc3c2C(=O)N[C@H](C(=O)NCCc2cc(C3CC3)on2)CC(=O)N1C` [Example 504, (9S,13S,19aR,22R)-22-benzyl-N-(2-(5-cyclopropylisoxazol-3-yl)ethyl)-13-isobutyl-12-methyl-7,11,14,20-tetraoxo-7,8,9,10,11,12,13,14,17,18,19,19a,20,21,22,23-hexadecahydro-16H-pyrido[2′,1′:6,7][1]oxa[4,7,10,14]tetraazacycloheptadecino[16,17-f]quinoline-9-carboxamide] were, in that order, 149 nM and 298%.
In the case of `CC(C)C[C@H]1C(=O)N2CCCC[C@@H]2C(=O)N[C@H](Cc2ccccc2)COc2ccc3ncccc3c2C(=O)N[C@H](C(=O)NCCc2nc(C3CC3)no2)CC(=O)N1C` [Example 505, (9S,13S,19aR,22R)-22-benzyl-N-(2-(3-cyclopropyl-1,2,4-oxadiazol-5-yl)ethyl)-13-isobutyl-12-methyl-7,11,14,20-tetraoxo-7,8,9,10,11,12,13,14,17,18,19,19a,20,21,22,23-hexadecahydro-16H-pyrido[2′,1′:6,7][1]oxa[4,7,10,14]tetraazacycloheptadecino[16,17-f]quinoline-9-carboxamide], the EC50 is 229 nM and the Emax stood at 330%.
